# In patent US8778954B2, “Phenylpyridine derivative and medicinal agent comprising same” (Kowa Company, Ltd., priority 2009, dated 2014):
# Legend:
# [1] = target: T1, angiotensin II type 1 receptor (Oryctolagus cuniculus, UniProt P34976); assay: Angiotensin II receptor antagonistic activity in isolated rabbit blood vessels (thoracic aorta ring, angiotensin II-induced contraction); format: cell-based; conditions: 0.1 μM test compound, angiotensin II (10 nM)-induced contraction, read-out: Angiotensin II activity inhibitiom rate (%) at 0.1 μM concentration
# T1 construct: By using a specimen of isolated rabbit blood vessels; from tissue; host or cells: rabbit (New Zealand White) thoracic aorta ring
# T1 sequence (P34976 1-359): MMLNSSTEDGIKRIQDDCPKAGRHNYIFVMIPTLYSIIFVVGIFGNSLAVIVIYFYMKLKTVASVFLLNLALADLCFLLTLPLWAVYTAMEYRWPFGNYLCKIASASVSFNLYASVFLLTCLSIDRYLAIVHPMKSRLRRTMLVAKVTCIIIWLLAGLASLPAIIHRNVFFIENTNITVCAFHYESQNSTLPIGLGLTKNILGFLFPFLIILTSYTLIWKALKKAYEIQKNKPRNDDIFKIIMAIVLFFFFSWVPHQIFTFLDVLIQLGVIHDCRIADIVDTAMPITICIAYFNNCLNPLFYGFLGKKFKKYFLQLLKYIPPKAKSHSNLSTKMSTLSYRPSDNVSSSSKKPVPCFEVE
# [2] = target: T2, human PPARγ2 (Homo sapiens, UniProt P37231); assay: PPARγ activation activity, Gal4-PPARγ2 LBD luciferase transfection assay using COS7 cells; format: cell-based; conditions: Gal4-human PPARγ2 LBD chimera, 16 hours, rosiglitazone = 100%
# T2 construct: the amino acids 182 to 505 of human PPARγ2; expressed in transfected cells; host or cells: COS7 cells (African green monkey kidney)
# T2 sequence (P37231 182-505): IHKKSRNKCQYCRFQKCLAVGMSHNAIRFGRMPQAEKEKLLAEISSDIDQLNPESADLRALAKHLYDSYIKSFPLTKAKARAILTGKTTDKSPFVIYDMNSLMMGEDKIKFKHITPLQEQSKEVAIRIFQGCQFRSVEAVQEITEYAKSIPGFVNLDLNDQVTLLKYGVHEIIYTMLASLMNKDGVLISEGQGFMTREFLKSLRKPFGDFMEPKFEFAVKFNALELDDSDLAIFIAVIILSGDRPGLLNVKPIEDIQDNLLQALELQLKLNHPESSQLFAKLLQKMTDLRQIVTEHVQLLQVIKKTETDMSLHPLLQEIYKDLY
# Procedure: The agonistic activity of the compounds of the invention on PPARγ was measured based on the transfection assay using COS7 cells (DS Pharma Biomedical Co., Ltd., Osaka, Japan), which are the cell line derived from the kidney of the African green monkey. COS7 cells were cultured under 5% CO2 concentration, and DMEM medium containing 10% fetal bovine serum, glutamic acid, and antibiotics was used as a medium.
# As an expression vector, a chimera in which DNA binding domain of Gal4, which is a yeast transcription factor, and ligand binding domain of human PPARγ2 are fused, i.e., a fused product between the amino acids 1 to 147 of Gal4 transcription factor and the amino acids 182 to 505 of human PPARγ2, was used. Furthermore, as a reporter vector, a firefly luciferase containing five copies of Gal4 recognition sequence in the promoter region was used. Plasmid transfection to the cells was performed according to a method which uses jetPEI (trade name, manufactured by Funakoshi Co., Ltd., Tokyo, Japan). Furthermore, β-galactosidase expression vector was employed as an internal standard.
# After the transfection of the cells, the medium was replaced with a DMEM medium (containing 1% serum) added with the test compound, and the cells were further cultured for 16 hours. After that, the luciferase activity and β-galactosidase activity in the cell lysis solution were measured.
# For the present test, dimethyl sulfoxide (DMSO) was used for dissolution and dilution of the test compounds, and during the cell treatment, the DMSO concentration in DMEM medium (containing 1% serum) was adjusted to 0.1%. As a positive compound, rosiglitazone (trade name, manufactured by ALEXIS Corporation, Switzerland) was used. The luciferase activity (%) of the test compounds (1 to 30 μmol/L) was calculated when the luciferase activity of rosiglitazone (3 to 10 μmol/L) is 100% and the luciferase activity in the absence of the test compound is 0%. The 50% effective concentration of the test compound (EC50, 50% effect concentration) was calculated by using SAS Preclinical Package Ver 5.0 (trade name, manufactured by SAS institute Japan Co., Tokyo, Japan), which is a statistical analysis program.
# EC50 values of these compounds are described in Table 2. […] Under the same condition, the PPARγ activation activity of telmisartan, i.e., EC50, was 1 to 5 μM.
inhibition at 0.1 µM [1],Structure (SMILES),EC50 [2]
,"CCCCc1nc(C(C)C)n(-c2ncc(OCC)cn2)c(=O)c1Cc1ccc(-c2ccccc2-c2nnn[nH]2)nc1 [Example 6, 5-{{6-[2-(1H-tetrazol-5-yl)phenyl]pyridin-3-yl}methyl}-6-butyl-3-(5-ethoxypyrimidin-2-yl)-2-isopropylpyrimidin-4(3H)-one]",1360 nM
,"CCCCc1nc(C2CCCC2)n(-c2ncc(OCC)cn2)c(=O)c1Cc1ccc(-c2ccccc2-c2noc(=O)[nH]2)nc1 [Example 26, 3-{2-{5-{[4-butyl-2-cyclopentyl-1-(5-ethoxypyrimidin-2-yl)-6-oxo-1,6-dihydropyrimidin-5-yl]methyl}pyridin-2-yl}phenyl}-1,2,4-oxadiazol-5(4H)-one]",380 nM
100%,"CCCCc1nc(C)n(-c2ncc(OCCS(C)(=O)=O)cn2)c(=O)c1Cc1ccc(-c2ccccc2-c2nnn[nH]2)nc1 [Example 13, 5-{{6-[2-(1H-tetrazol-5-yl)phenyl]pyridin-3-yl}methyl}-6-butyl-2-methyl-3-{5-[2-(methylsulfonyl)ethoxy]pyrimidin-2-yl}pyrimidin-4(3H)-one]",
59.3%,"CCCCc1nc(C)n(-c2ccccn2)c(=O)c1Cc1ccc(-c2ccccc2-c2noc(=O)[nH]2)nc1 [Example 14, 3-{2-{5-{[4-butyl-2-methyl-6-oxo-1-(pyridin-2-yl)-1,6-dihydropyrimidin-5-yl]methyl}pyridin-2-yl}phenyl}-1,2,4-oxadiazol-5(4H)-one]",
86.5%,"CCCCc1nc(C)n(-c2ncc(OCCSC)cn2)c(=O)c1Cc1ccc(-c2ccccc2-c2noc(=O)[nH]2)nc1 [Example 28, 3-{2-{5-{{4-butyl-2-methyl-1-{5-[2-(methylthio)ethoxy]pyrimidin-2-yl}-6-oxo-1,6-dihydropyrimidin-5-yl}methyl}pyridin-2-yl}phenyl}-1,2,4-oxadiazol-5(4H)-one]",
96.3%,"CCCCc1nc(C)n(-c2ncc(OCCS(C)(=O)=O)cn2)c(=O)c1Cc1ccc(-c2ccccc2-c2noc(=O)[nH]2)nc1 [Example 29, 3-{2-{5-{{4-butyl-2-methyl-1-{5-[2-(methylsulfonyl)ethoxy]pyrimidin-2-yl}-6-oxo-1,6-dihydropyrimidin-5-yl}methyl}pyridin-2-yl}phenyl}-1,2,4-oxadiazol-5(4H)-one]",
,"CCCCc1nc(CC)n(-c2ncc(OC)cn2)c(=O)c1Cc1ccc(-c2ccccc2-c2noc(=O)[nH]2)nc1 [Example 18, 3-{2-{5-{[4-butyl-2-ethyl-1-(5-methoxypyrimidin-2-yl)-6-oxo-1,6-dihydropyrimidin-5-yl]methyl}pyridin-2-yl}phenyl}-1,2,4-oxadiazol-5(4H)-one]",3390 nM
,"CCCCc1nc(C2CCC2)n(-c2ncc(OCC)cn2)c(=O)c1Cc1ccc(-c2ccccc2-c2noc(=O)[nH]2)nc1 [Example 25, 3-{2-{5-{[4-butyl-2-cyclobutyl-1-(5-ethoxypyrimidin-2-yl)-6-oxo-1,6-dihydropyrimidin-5-yl]methyl}pyridin-2-yl}phenyl}-1,2,4-oxadiazol-5(4H)-one]",820 nM
72.9%,"CCCCc1nc(C)n(-c2ncc(OC)cn2)c(=O)c1Cc1ccc(-c2ccccc2-c2noc(=O)[nH]2)nc1 [Example 16, 3-{2-{5-{[4-butyl-1-(5-methoxypyrimidin-2-yl)-2-methyl-6-oxo-1,6-dihydropyrimidin-5-yl]methyl}pyridin-2-yl}phenyl}-1,2,4-oxadiazol-5(4H)-one]",
90.8%,"CCCCc1nc(C)n(-c2ncc(OCC)cn2)c(=O)c1Cc1ccc(-c2ccccc2-c2nnn[nH]2)nc1 [Example 2, 5-{{6-[2-(1H-tetrazol-5-yl)phenyl]pyridin-3-yl}methyl}-6-butyl-3-(5-ethoxypyrimidin-2-yl)-2-methylpyrimidin-4(3H)-one]",
,"CCCCc1nc(C)n(-c2ncc(C(F)(F)F)cc2Cl)c(=O)c1Cc1ccc(-c2ccccc2-c2nnn[nH]2)cn1 [Example 32, 5-{{5-[2-(1H-tetrazol-5-yl)phenyl]pyridin-2-yl}methyl}-6-butyl-3-[3-chloro-5-(trifluoromethyl)pyridin-2-yl]-2-methylpyrimidin-4(3H)-one]",2740 nM
100%,"CCCCc1nc(C)n(-c2ncc(OC)cn2)c(=O)c1Cc1ccc(-c2ccccc2-c2nnn[nH]2)nc1 [Example 1, 5-{{6-[2-(1H-tetrazol-5-yl)phenyl]pyridin-3-yl}methyl}-6-butyl-3-(5-methoxypyrimidin-2-yl)-2-methylpyrimidin-4(3H)-one]",
,"CCCCc1nc(C2CCCCC2)n(-c2ncc(OCC)cn2)c(=O)c1Cc1ccc(-c2ccccc2-c2noc(=O)[nH]2)nc1 [Example 27, 3-{2-{5-{[4-butyl-2-cyclohexyl-1-(5-ethoxypyrimidin-2-yl)-6-oxo-1,6-dihydropyrimidin-5-yl]methyl}pyridin-2-yl}phenyl}-1,2,4-oxadiazol-5(4H)-one]",670 nM
,"CCCCc1nc(C(C)C)n(-c2ncc(OC)cn2)c(=O)c1Cc1ccc(-c2ccccc2-c2noc(=O)[nH]2)nc1 [Example 20, 3-{2-{5-{[4-butyl-2-isopropyl-1-(5-methoxypyrimidin-2-yl)-6-oxo-1,6-dihydropyrimidin-5-yl]methyl}pyridin-2-yl}phenyl}-1,2,4-oxadiazol-5(4H)-one]",850 nM
100%,"CCCCc1nc(C)n(-c2ncc(OCCSC)cn2)c(=O)c1Cc1ccc(-c2ccccc2-c2nnn[nH]2)nc1 [Example 12, 5-{{6-[2-(1H-tetrazol-5-yl)phenyl]pyridin-3-yl}methyl}-6-butyl-2-methyl-3-{5-[2-(methylthio)ethoxy]pyrimidin-2-yl}pyrimidin-4(3H)-one]",
,"CCCCc1nc(C2CCC2)n(-c2ncc(OC)cn2)c(=O)c1Cc1ccc(-c2ccccc2-c2noc(=O)[nH]2)nc1 [Example 24, 3-{2-{5-{[4-butyl-2-cyclobutyl-1-(5-methoxypyrimidin-2-yl)-6-oxo-1,6-dihydropyrimidin-5-yl]methyl}pyridin-2-yl}phenyl}-1,2,4-oxadiazol-5(4H)-one]",1460 nM
,"CCCCc1nc(CC)n(-c2ncc(OCC)cn2)c(=O)c1Cc1ccc(-c2ccccc2-c2noc(=O)[nH]2)nc1 [Example 19, 3-{2-{5-{[4-butyl-1-(5-ethoxypyrimidin-2-yl)-2-ethyl-6-oxo-1,6-dihydropyrimidin-5-yl]methyl}pyridin-2-yl}phenyl}-1,2,4-oxadiazol-5(4H)-one]",1500 nM

Structure (SMILES),inhibition at 0.1 µM [1],EC50 [2]
"CCCCc1nc(C2CC2)n(-c2ncc(OC)cn2)c(=O)c1Cc1ccc(-c2ccccc2-c2noc(=O)[nH]2)nc1 [Example 22, 3-{2-{5-{[4-butyl-2-cyclopropyl-1-(5-methoxypyrimidin-2-yl)-6-oxo-1,6-dihydropyrimidin-5-yl]methyl}pyridin-2-yl}phenyl}-1,2,4-oxadiazol-5(4H)-one]",59.5%,1550 nM
"CCCCc1nc(C)n(-c2ncc(OCC)cn2)c(=O)c1Cc1ccc(-c2ccccc2-c2noc(=O)[nH]2)nc1 [Example 17, 3-{2-{5-{[4-butyl-1-(5-ethoxypyrimidin-2-yl)-2-methyl-6-oxo-1,6-dihydropyrimidin-5-yl]methyl}pyridin-2-yl}phenyl}-1,2,4-oxadiazol-5(4H)-one]",52.1%,3120 nM
"CCCCc1nc(C)n(-c2cc(C)ccn2)c(=O)c1Cc1ccc(-c2ccccc2-c2noc(=O)[nH]2)nc1 [Example 15, 3-{2-{5-{[4-butyl-2-methyl-1-(4-methylpyridin-2-yl)-6-oxo-1,6-dihydropyrimidin-5-yl]methyl}pyridin-2-yl}phenyl}-1,2,4-oxadiazol-5(4H)-one]",78.3%,3610 nM
